Laboratory results from patent US8999940B2 (Ipsen Pharma S.A.S., priority 2008, dated 2015).

What was measured:
[1] = Rat plasma half-life assay; type: in vitro ADME; settings: 37° C., LC-MS, read-out: Rat Plasma T½ (converted)
[2] = Human plasma half-life assay; type: in vitro ADME; settings: 37° C., LC-MS, read-out: Human Plasma T½ (converted)
[3] = target: T1, human recombinant GIP receptor (Homo sapiens, UniProt P48546); assay: In vitro hGIP receptor binding assay
T1 construct: expressed in transfected cells; host or cells: CHO-K1 clonal cells (membrane preparation)
T1 sequence (P48546 22-466): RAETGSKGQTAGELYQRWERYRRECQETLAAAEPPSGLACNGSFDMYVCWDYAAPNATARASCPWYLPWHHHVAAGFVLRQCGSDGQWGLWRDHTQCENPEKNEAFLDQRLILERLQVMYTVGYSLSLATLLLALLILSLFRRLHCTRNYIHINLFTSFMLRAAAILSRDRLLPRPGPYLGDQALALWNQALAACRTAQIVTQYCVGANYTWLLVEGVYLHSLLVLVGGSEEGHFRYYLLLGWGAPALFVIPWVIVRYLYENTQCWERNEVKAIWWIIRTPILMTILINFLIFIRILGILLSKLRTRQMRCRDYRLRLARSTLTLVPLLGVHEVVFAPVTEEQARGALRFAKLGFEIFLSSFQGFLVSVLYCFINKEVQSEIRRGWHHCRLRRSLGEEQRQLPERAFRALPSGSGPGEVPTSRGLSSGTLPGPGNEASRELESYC
Procedure: A. In Vitro hGIP Receptor Binding Assay […] The incubations were terminated by rapid filtration through GF/C filters (pre-soaked in 0.5% polyethylenimine) using a Brandel filtration manifold. Each tube and filter were then washed three times with 5-ml aliquots of ice-cold buffer.

Compound	half-life at 0.1 mg/ml [1] [h]	half-life at 0.1 mg/ml [2] [h]	Ki [3] [nM]
CCCC[C@H](NC(=O)C(C)(C)NC(=O)[C@@H](NC(=O)[C@H](CO)NC(=O)[C@H](Cc1ccc(O)cc1)NC(=O)[C@H](CC(=O)O)NC(=O)[C@H](CO)NC(=O)[C@@H](NC(=O)[C@H](Cc1ccccc1)NC(=O)[C@@H](NC(=O)CNC(=O)[C@H](CCC(=O)O)NC(=O)C(C)(C)NC(=O)[C@@H](N)Cc1c[nH]cn1)[C@@H](C)O)[C@@H](C)CC)[C@@H](C)CC)C(=O)N[C@@H](CC(=O)O)C(=O)N[C@@H](CCCCN)C(=O)N[C@H](C(=O)N[C@@H](Cc1c[nH]cn1)C(=O)N[C@@H](CCC(N)=O)C(=O)N[C@@H](CCC(N)=O)C(=O)N[C@@H](CC(=O)O)C(=O)N[C@@H](Cc1ccccc1)C(=O)N[C@H](C(=O)N[C@@H](CC(N)=O)C(=O)N[C@@H](Cc1c[nH]c2ccccc12)C(=O)N[C@@H](CC(C)C)C(=O)N[C@@H](CC(C)C)C(=O)N[C@@H](C)C(=O)N[C@@H](CCC(N)=O)C(=O)N[C@@H](CCCCN)C(=O)NCC(=O)N[C@@H](CCCCN)C(=O)N[C@@H](CCCCN)C(=O)N[C@@H](CC(N)=O)C(=O)N[C@@H](CC(=O)O)C(=O)N[C@@H](Cc1c[nH]c2ccccc12)C(=O)N[C@@H](CCCCN)C(=O)N[C@@H](Cc1c[nH]cn1)C(=O)N[C@@H](CC(N)=O)C(=O)N[C@H](C(=O)N[C@H](C(=O)N[C@@H](CCC(N)=O)C(=O)O)[C@@H](C)O)[C@@H](C)CC)C(C)C)[C@@H](C)CC [Example 10, (His^1, Aib^2, 13, Nle^14)hGIP(1-42)-OH]	9.2	71.4	3.33
CC[C@H](C)[C@H](NC(=O)[C@H](CCCCN)NC(=O)[C@H](CC(=O)O)NC(=O)[C@H](CCSC)NC(=O)[C@H](C)NC(=O)[C@@H](NC(=O)C1(NC(=O)[C@H](Cc2ccc(O)cc2)NC(=O)[C@H](CC(=O)O)NC(=O)[C@H](CO)NC(=O)[C@@H](NC(=O)[C@H](Cc2ccccc2)NC(=O)[C@@H](NC(=O)CNC(=O)[C@H](CCC(=O)O)NC(=O)C(C)(C)NC(=O)[C@@H](N)Cc2ccc(O)c(OC)c2)[C@@H](C)O)[C@@H](C)CC)CCCC1)[C@@H](C)CC)C(=O)N[C@@H](Cc1c[nH]cn1)C(=O)N[C@@H](CCC(N)=O)C(=O)N[C@@H](CCC(N)=O)C(=O)N[C@@H](CC(=O)O)C(=O)N[C@@H](Cc1ccccc1)C(=O)N[C@H](C(=O)N[C@@H](CC(N)=O)C(=O)N[C@@H](Cc1c[nH]c2ccccc12)C(=O)N[C@@H](CC(C)C)C(=O)N[C@@H](CC(C)C)C(=O)N[C@@H](C)C(=O)N[C@@H](CCC(N)=O)C(=O)N[C@@H](CCCCN)C(=O)NCC(=O)N[C@@H](CCCCN)C(=O)N[C@@H](CCCCN)C(=O)N[C@@H](CC(N)=O)C(=O)N[C@@H](CC(=O)O)C(=O)N[C@@H](Cc1c[nH]c2ccccc12)C(=O)N[C@@H](CCCCN)C(=O)N[C@@H](Cc1c[nH]cn1)C(=O)N[C@@H](CC(N)=O)C(=O)N[C@H](C(=O)N[C@H](C(=O)N[C@@H](CCC(N)=O)C(=O)N[C@@H](Cc1c[nH]cn1)C(=O)O)[C@@H](C)O)[C@@H](C)CC)C(C)C [Example 73, (3MeO-Tyr^1, Aib^2, A5c^11, His^43)hGIP(1-43)-OH]	11.8	28.6	3.9
CC[C@H](C)[C@H](NC(=O)[C@H](CCCCN)NC(=O)[C@H](CC(=O)O)NC(=O)[C@H](CCSC)NC(=O)[C@H](C)NC(=O)[C@@H](NC(=O)C1(NC(=O)[C@H](Cc2ccc(O)cc2)NC(=O)[C@H](CC(=O)O)NC(=O)[C@H](CO)NC(=O)[C@@H](NC(=O)[C@H](Cc2ccccc2)NC(=O)[C@@H](NC(=O)CNC(=O)[C@H](CCC(=O)O)NC(=O)C(C)(C)NC(=O)[C@@H](N)Cc2ccc(OC)cc2)[C@@H](C)O)[C@@H](C)CC)CCCC1)[C@@H](C)CC)C(=O)N[C@@H](Cc1c[nH]cn1)C(=O)N[C@@H](CCC(N)=O)C(=O)N[C@@H](CCC(N)=O)C(=O)N[C@@H](CC(=O)O)C(=O)N[C@@H](Cc1ccccc1)C(=O)N[C@H](C(=O)N[C@@H](CC(N)=O)C(=O)N[C@@H](Cc1c[nH]c2ccccc12)C(=O)N[C@@H](CC(C)C)C(=O)N[C@@H](CC(C)C)C(=O)N[C@@H](C)C(=O)N[C@@H](CCC(N)=O)C(=O)N[C@@H](CCCCN)C(=O)NCC(=O)N[C@@H](CCCCN)C(=O)N[C@@H](CCCCN)C(=O)N[C@@H](CC(N)=O)C(=O)N[C@@H](CC(=O)O)C(=O)N[C@@H](Cc1c[nH]c2ccccc12)C(=O)N[C@@H](CCCCN)C(=O)N[C@@H](Cc1c[nH]cn1)C(=O)N[C@@H](CC(N)=O)C(=O)N[C@H](C(=O)NC1(C(=O)N[C@@H](CCC(N)=O)C(=O)O)CCCC1)[C@@H](C)CC)C(C)C [Example 31, [Tyr(Me)^1, Aib^2, A5c^11, 41]hGIP(1-42)-OH]	9.7	34.8	4.5
CCCC[C@H](NC(=O)[C@H](C)NC(=O)[C@@H](NC(=O)C1(NC(=O)[C@H](Cc2ccc(O)cc2)NC(=O)[C@H](CC(=O)O)NC(=O)[C@H](CO)NC(=O)[C@@H](NC(=O)[C@H](Cc2ccccc2)NC(=O)[C@@H](NC(=O)CNC(=O)[C@H](CCC(=O)O)NC(=O)C(C)(C)NC(=O)[C@@H](N)Cc2cc(F)cc(F)c2)[C@@H](C)O)[C@@H](C)CC)CCCC1)[C@@H](C)CC)C(=O)N[C@@H](CC(=O)O)C(=O)N[C@@H](CCCCN)C(=O)N[C@H](C(=O)N[C@@H](Cc1c[nH]cn1)C(=O)N[C@@H](CCC(N)=O)C(=O)N[C@@H](CCC(N)=O)C(=O)N[C@@H](CC(=O)O)C(=O)N[C@@H](Cc1ccccc1)C(=O)N[C@H](C(=O)N[C@@H](CC(N)=O)C(=O)N[C@@H](Cc1c[nH]c2ccccc12)C(=O)N[C@@H](CC(C)C)C(=O)N[C@@H](CC(C)C)C(=O)N[C@@H](C)C(=O)N[C@@H](CCC(N)=O)C(=O)N[C@@H](CCCCN)C(=O)NCC(=O)N[C@@H](CCCCN)C(=O)N[C@@H](CCCCN)C(=O)N[C@@H](CC(N)=O)C(=O)N[C@@H](CC(=O)O)C(=O)N[C@@H](Cc1c[nH]c2ccccc12)C(=O)N[C@@H](CCCCN)C(=O)N[C@@H](Cc1c[nH]cn1)C(=O)N[C@@H](CC(N)=O)C(=O)N[C@H](C(=O)N[C@H](C(=O)N[C@@H](CCC(N)=O)C(=O)O)[C@@H](C)O)[C@@H](C)CC)C(C)C)[C@@H](C)CC [Example 25, (3,5F-Phe^1, Aib^2, A5c^11, Nle^14)hGIP(1-42)-OH]	> 74	> 74	26
CCCC[C@H](NC(=O)[C@H](C)NC(=O)[C@@H](NC(=O)C1(NC(=O)[C@H](Cc2ccc(O)cc2)NC(=O)[C@H](CC(=O)O)NC(=O)[C@H](CO)NC(=O)[C@@H](NC(=O)[C@H](Cc2ccccc2)NC(=O)[C@@H](NC(=O)CNC(=O)[C@H](CCC(=O)O)NC(=O)C(C)(C)NC(=O)[C@@H](N)Cc2cccc(F)c2)[C@@H](C)O)[C@@H](C)CC)CCCC1)[C@@H](C)CC)C(=O)N[C@@H](CC(=O)O)C(=O)N[C@@H](CCCCN)C(=O)N[C@H](C(=O)N[C@@H](Cc1c[nH]cn1)C(=O)N[C@@H](CCC(N)=O)C(=O)N[C@@H](CCC(N)=O)C(=O)N[C@@H](CC(=O)O)C(=O)N[C@@H](Cc1ccccc1)C(=O)N[C@H](C(=O)N[C@@H](CC(N)=O)C(=O)N[C@@H](Cc1c[nH]c2ccccc12)C(=O)N[C@@H](CC(C)C)C(=O)N[C@@H](CC(C)C)C(=O)N[C@@H](C)C(=O)N[C@@H](CCC(N)=O)C(=O)N[C@@H](CCCCN)C(=O)NCC(=O)N[C@@H](CCCCN)C(=O)N[C@@H](CCCCN)C(=O)N[C@@H](CC(N)=O)C(=O)N[C@@H](CC(=O)O)C(=O)N[C@@H](Cc1c[nH]c2ccccc12)C(=O)N[C@@H](CCCCN)C(=O)N[C@@H](Cc1c[nH]cn1)C(=O)N[C@@H](CC(N)=O)C(=O)N[C@H](C(=O)N[C@H](C(=O)N[C@@H](CCC(N)=O)C(=O)O)[C@@H](C)O)[C@@H](C)CC)C(C)C)[C@@H](C)CC [Example 23, (3F-Phe^1, Aib^2, A5c^11, Nle^14)hGIP(1-42)-OH]	> 74	> 74	2.7
